Experimental data published in PubChem BioAssay (NCI).
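Interpolation was linear, between the two tested concentrations surrounding the appropriate level; five concentrations were tested over 48 hours in 96-well plates. At the TGI there is no net growth.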

Key:
Experiment in all cases: growth of human tumour cells (NCI), 48 h
OVCAR-5 ovarian = system: OVCAR-5 ovarian
T-47D breast = system: T-47D breast
SK-MEL-2 melanoma = system: SK-MEL-2 melanoma
COLO 205 colon = system: COLO 205 colon
MALME-3M melanoma = system: MALME-3M melanoma
SK-MEL-5 melanoma = system: SK-MEL-5 melanoma
RXF 393 renal = system: RXF 393 renal
HCT-116 colon = system: HCT-116 colon
NCI/ADR-RES ovarian = system: NCI/ADR-RES ovarian
HCT-15 colon = system: HCT-15 colon
RPMI-8226 leukemia = system: RPMI-8226 leukemia
U251 CNS = system: U251 CNS
HT29 colon = system: HT29 colon
A549 NSCLC = system: A549 NSCLC
BT-549 breast = system: BT-549 breast
A498 renal = system: A498 renal
SNB-75 CNS = system: SNB-75 CNS
CAKI-1 renal = system: CAKI-1 renal
HOP-62 NSCLC = system: HOP-62 NSCLC
MDA-N = system: MDA-N
HCC-2998 colon = system: HCC-2998 colon
SW-620 colon = system: SW-620 colon
M14 melanoma = system: M14 melanoma
SNB-19 CNS = system: SNB-19 CNS
SK-OV-3 ovarian = system: SK-OV-3 ovarian
ACHN renal = system: ACHN renal
TK-10 renal = system: TK-10 renal
NCI-H23 lung = system: NCI-H23 lung
UACC-257 melanoma = system: UACC-257 melanoma
IGROV1 ovarian = system: IGROV1 ovarian
UACC-62 melanoma = system: UACC-62 melanoma
EKVX NSCLC = system: EKVX NSCLC
HS 578T breast = system: HS 578T breast
DU-145 prostate = system: DU-145 prostate
MDA-MB-231 breast = system: MDA-MB-231 breast
UO-31 renal = system: UO-31 renal
KM12 colon = system: KM12 colon
786-0 renal = system: 786-0 renal
SF-295 CNS = system: SF-295 CNS
CCRF-CEM leukemia = system: CCRF-CEM leukemia
SF-539 CNS = system: SF-539 CNS
NCI-H522 lung = system: NCI-H522 lung
SR leukemia = system: SR leukemia
SF-268 CNS = system: SF-268 CNS
K-562 leukemia = system: K-562 leukemia
OVCAR-3 ovarian = system: OVCAR-3 ovarian
MOLT-4 leukemia = system: MOLT-4 leukemia
NCI-H226 lung = system: NCI-H226 lung
LOX IMVI melanoma = system: LOX IMVI melanoma
SN12C renal = system: SN12C renal
MDA-MB-435 = system: MDA-MB-435
OVCAR-4 ovarian = system: OVCAR-4 ovarian
MCF7 breast = system: MCF7 breast
HL-60(TB) leukemia = system: HL-60(TB) leukemia
OVCAR-8 ovarian = system: OVCAR-8 ovarian
PC-3 prostate = system: PC-3 prostate
NCI-H460 lung = system: NCI-H460 lung
SK-MEL-28 melanoma = system: SK-MEL-28 melanoma
HOP-92 NSCLC = system: HOP-92 NSCLC

CC1OC(n2cc(F)c(=O)[nH]c2=O)C(O[Si](C)(C)C(C)(C)C)C1O[Si](C)(C)C(C)(C)C (configuration not stated)
TGI (OVCAR-5 ovarian): 31.1 µM
TGI (T-47D breast): 27.1 µM
TGI (SK-MEL-2 melanoma): 35.5 µM
TGI (COLO 205 colon): 27.4 µM
TGI (MALME-3M melanoma): 28.5 µM
TGI (SK-MEL-5 melanoma): 28.2 µM
TGI (RXF 393 renal): 29.5 µM
TGI (HCT-116 colon): 26.8 µM
TGI (NCI/ADR-RES ovarian): 27.7 µM
TGI (HCT-15 colon): 25.6 µM
TGI (RPMI-8226 leukemia): 35.4 µM
TGI (U251 CNS): 26.9 µM
TGI (HT29 colon): 23.3 µM
TGI (A549 NSCLC): 54.2 µM
TGI (BT-549 breast): 26.1 µM
TGI (A498 renal): 27.3 µM
TGI (SNB-75 CNS): 31.3 µM
TGI (CAKI-1 renal): 28.9 µM
TGI (HOP-62 NSCLC): 43.7 µM
TGI (MDA-N): 29.3 µM
TGI (HCC-2998 colon): 28.2 µM
TGI (SW-620 colon): 28.6 µM
TGI (M14 melanoma): 45 µM
TGI (SNB-19 CNS): 30.1 µM
TGI (SK-OV-3 ovarian): 32 µM
TGI (ACHN renal): 26.9 µM
TGI (TK-10 renal): 22.9 µM
TGI (NCI-H23 lung): 23 µM
TGI (UACC-257 melanoma): 33.2 µM
TGI (IGROV1 ovarian): 27.3 µM
TGI (UACC-62 melanoma): 28.6 µM
TGI (EKVX NSCLC): 31.6 µM
TGI (HS 578T breast): 40.7 µM
TGI (DU-145 prostate): 26.8 µM
TGI (MDA-MB-231 breast): 31.6 µM
TGI (UO-31 renal): 25.4 µM
TGI (KM12 colon): 26.1 µM
TGI (786-0 renal): 27.7 µM
TGI (SF-295 CNS): 27.1 µM
TGI (CCRF-CEM leukemia): > 100 µM
TGI (SF-539 CNS): 28.7 µM
TGI (NCI-H522 lung): 16.8 µM
TGI (SR leukemia): > 100 µM
TGI (SF-268 CNS): 29.8 µM
TGI (K-562 leukemia): 36.1 µM
TGI (OVCAR-3 ovarian): 37.3 µM
TGI (MOLT-4 leukemia): > 100 µM
TGI (NCI-H226 lung): 31.1 µM
TGI (LOX IMVI melanoma): 42 µM
TGI (SN12C renal): 24.9 µM
TGI (MDA-MB-435): 34.5 µM
TGI (OVCAR-4 ovarian): 16.8 µM
TGI (MCF7 breast): 35.7 µM
TGI (HL-60(TB) leukemia): 45.1 µM
TGI (OVCAR-8 ovarian): 28.9 µM
TGI (PC-3 prostate): 27.3 µM

NS(=O)(=O)c1nnc(NSc2ccc([N+](=O)[O-])cc2)s1
TGI (OVCAR-5 ovarian): > 100 µM
TGI (T-47D breast): > 100 µM
TGI (SK-MEL-2 melanoma): > 100 µM
TGI (COLO 205 colon): > 100 µM
TGI (MALME-3M melanoma): > 100 µM
TGI (NCI-H460 lung): > 100 µM
TGI (SK-MEL-5 melanoma): > 100 µM
TGI (RXF 393 renal): > 100 µM
TGI (HCT-116 colon): > 100 µM
TGI (NCI/ADR-RES ovarian): > 100 µM
TGI (HCT-15 colon): > 100 µM
TGI (RPMI-8226 leukemia): > 100 µM
TGI (U251 CNS): > 100 µM
TGI (A549 NSCLC): > 100 µM
TGI (BT-549 breast): > 100 µM
TGI (A498 renal): > 100 µM
TGI (CAKI-1 renal): > 100 µM
TGI (HOP-62 NSCLC): > 100 µM
TGI (MDA-N): > 100 µM
TGI (HCC-2998 colon): > 100 µM
TGI (SK-MEL-28 melanoma): > 100 µM
TGI (SW-620 colon): > 100 µM
TGI (M14 melanoma): > 100 µM
TGI (SNB-19 CNS): > 100 µM
TGI (SK-OV-3 ovarian): > 100 µM
TGI (ACHN renal): > 100 µM
TGI (TK-10 renal): > 100 µM
TGI (NCI-H23 lung): > 100 µM
TGI (UACC-257 melanoma): > 100 µM
TGI (UACC-62 melanoma): > 100 µM
TGI (EKVX NSCLC): > 100 µM
TGI (HS 578T breast): > 100 µM
TGI (DU-145 prostate): > 100 µM
TGI (MDA-MB-231 breast): > 100 µM
TGI (UO-31 renal): > 100 µM
TGI (786-0 renal): > 100 µM
TGI (SF-295 CNS): > 100 µM
TGI (NCI-H522 lung): 44.3 µM
TGI (SR leukemia): > 100 µM
TGI (HOP-92 NSCLC): > 100 µM
TGI (SF-268 CNS): > 100 µM
TGI (K-562 leukemia): > 100 µM
TGI (OVCAR-3 ovarian): > 100 µM
TGI (MOLT-4 leukemia): > 100 µM
TGI (NCI-H226 lung): > 100 µM
TGI (LOX IMVI melanoma): > 100 µM
TGI (SN12C renal): > 100 µM
TGI (MDA-MB-435): > 100 µM
TGI (OVCAR-4 ovarian): > 100 µM
TGI (MCF7 breast): > 100 µM
TGI (OVCAR-8 ovarian): > 100 µM
